Target: T1, human NOX4 (Homo sapiens, UniProt Q9NPH5)
T1 construct: expressed in transfected cells; membrane fraction used
T1 sequence (Q9NPH5 1-578): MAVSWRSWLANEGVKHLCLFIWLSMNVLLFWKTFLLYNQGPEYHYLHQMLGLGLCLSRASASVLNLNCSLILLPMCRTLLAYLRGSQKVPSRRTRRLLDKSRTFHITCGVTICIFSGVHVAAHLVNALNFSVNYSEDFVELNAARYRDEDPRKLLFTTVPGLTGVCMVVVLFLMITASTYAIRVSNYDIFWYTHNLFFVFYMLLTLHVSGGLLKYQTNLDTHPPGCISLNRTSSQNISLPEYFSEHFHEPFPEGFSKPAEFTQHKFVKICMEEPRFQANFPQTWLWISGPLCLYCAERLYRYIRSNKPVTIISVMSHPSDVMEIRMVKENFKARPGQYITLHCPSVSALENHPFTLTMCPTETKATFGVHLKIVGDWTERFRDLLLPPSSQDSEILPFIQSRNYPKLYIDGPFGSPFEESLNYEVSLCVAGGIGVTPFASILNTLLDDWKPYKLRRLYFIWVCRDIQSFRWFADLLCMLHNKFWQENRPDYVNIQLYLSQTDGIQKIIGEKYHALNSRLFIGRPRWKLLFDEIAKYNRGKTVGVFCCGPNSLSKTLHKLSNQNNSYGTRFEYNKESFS
T1 sequence (P13498 1-195 partner): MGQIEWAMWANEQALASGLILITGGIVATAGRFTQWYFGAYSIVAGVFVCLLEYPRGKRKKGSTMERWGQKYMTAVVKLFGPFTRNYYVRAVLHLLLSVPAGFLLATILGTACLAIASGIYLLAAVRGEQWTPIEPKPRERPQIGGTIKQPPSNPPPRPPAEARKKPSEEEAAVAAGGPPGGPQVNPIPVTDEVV
Experiment: Cell free membrane based in vitro NOX4 assay: H2O2 production by membranes expressing human NOX4, measured with Amplex Red
Type: biochemical
Settings: for inhibition at 1 µM: 1.0 μM compound, read-out: Percentage inhibition at 1.0 μM; for inhibition at 10 µM: 10.0 μM compound, read-out: Percentage inhibition at 10.0 μM; for IC50: class symbols
Procedure: The inhibition of NOX4 activity was measured as inhibition of formation of reactive oxygen species (ROS) from oxygen in cell free assays. […] A cell free membrane based in vitro assay was developed by preparing membranes from cells stably overexpressing human NOX4. hNOX4/HEK stable cell line was generated in-house for this purpose. Membranes from stably transfected cells overexpressing human NOX4 were prepared by homogenizing the cells in buffer (20 mM HEPES, 1 mM EGTA, 0.5 mM DTT, 0.5% protease inhibitor cocktail, 1 mM PMSF, pH 7.6), followed by centrifugation at 160000 g for 30 min. Membrane fraction (pellet) was resuspended in storage buffer (homogenization buffer with 10% glycerol and 100 mM NaCl) and stored at −80° C. Protein concentration was determined by Bradford reagent. H202 production by membranes expressing human NOX4 was measured using Amplex Red (Invitrogen) by following a slightly modified version of the manufacturer's instruction manual. Briefly, membranes were incubated in assay buffer (25 mM HEPES, 0.12 M NaCl, 3 mM KCl, 1 mM MgCl2, pH 7.4) with Horse Radish Peroxidase (HRP) and Amplex Red. Reaction was started by addition of […] to the membrane mix. Antagonism of NOX4 inhibitors was measured by incubating the membrane with increasing concentrations of the inhibitors for 20 min on a plate shaker prior to addition of NADPH. H2O2 levels were measured for 10 min in a BMG Fluostar microplate reader with excitation and emission wavelengths of 544 nm and 590 nm respectively. Concentration response curves were plotted as a % of maximal response obtained in the absence of the inhibitor. IC50 value was calculated from concentration response curve by nonlinear regression analysis using GraphPad PRISM software.

Structure (SMILES) | inhibition at 1 µM [%] | inhibition at 10 µM [%] | IC50 [µM]
Cc1nn(C)c2[nH]c(-c3ccccc3Cl)c(O)c(=O)c12 [Example 1, 6-(2-Chlorophenyl)-5-hydroxy-1,3-dimethyl-1,7-dihydro-4H-pyrazolo[3,4-b]pyridin-4-one] | 94.1 | 89.7 | < 0.05
Cc1nn(CCN2CCOCC2)c2[nH]c(-c3ccccc3Cl)c(O)c(=O)c12 [Example 2, 6-(2-Chlorophenyl)-5-hydroxy-3-methyl-1-(2-morpholinoethyl)-1H-pyrazolo[3,4-b]pyridin-4(7H)-one] | 83.5 | 81.5 | 0.1 to 0.15
Cn1ncc2c(=O)c(O)c(-c3ccccc3Cl)[nH]c21 [Example 3, 6-(2-Chlorophenyl)-5-hydroxy-1-methyl-1,7-dihydro-4H-pyrazolo[3,4-b]pyridin-4-one] | 93.7 | 100 | 0.1 to 0.15
Cn1ncc2c(=O)c(O)c(-c3cccc(Cl)c3)[nH]c21 [Example 4, 6-(3-Chlorophenyl)-5-hydroxy-1-methyl-1,7-dihydro-4H-pyrazolo[3,4-b]pyridin-4-one] | 94.5 | 98.5 | > 0.15
Cn1ncc2c(=O)c(O)c(-c3ccc(Cl)cc3Cl)[nH]c21 [Example 5, 6-(2,4-Dichlorophenyl)-5-hydroxy-1-methyl-1,7-dihydro-4H-pyrazolo[3,4-b]pyridin-4-one] | 74 | 84.2 | > 0.15
Cn1ncc2c(=O)c(O)c(-c3ccc(F)c(C(F)(F)F)c3)[nH]c21 [Example 6, 6-[4-Fluoro-3-(trifluoromethyl)phenyl]-5-hydroxy-1-methyl-1,7-dihydro-4H-pyrazolo[3,4-b]pyridin-4-one] | 96.3 | 94.3 | 0.1 to 0.15
Cn1ncc2c(=O)c(O)c(-c3c(F)cccc3Cl)[nH]c21 [Example 7, 6-(2-Chloro-6-fluorophenyl)-5-hydroxy-1-methyl-1,7-dihydro-4H-pyrazolo[3,4-b]pyridin-4-one] | 100 | 100 | 0.05 to 0.1
O=c1c(O)c(-c2ccccc2Cl)[nH]c2c1cnn2CC(F)(F)F [Example 8, 6-(2-Chlorophenyl)-5-hydroxy-1-(2,2,2-trifluoroethyl)-1,7-dihydro-4H-pyrazolo[3,4-b]pyridin-4-one] | 87.5 | 100 | 0.05 to 0.1
O=c1c(O)c(-c2c(F)cccc2F)[nH]c2c1cnn2-c1ccc(F)cc1 [Example 9, 6-(2,6-Difluorophenyl)-1-(4-fluorophenyl)-5-hydroxy-1,7-dihydro-4H-pyrazolo[3,4-b]pyridin-4-one] | 81.7 | 97.4 | > 0.15
O=c1c(O)c(-c2ccccc2Cl)[nH]c2c1cnn2-c1ccc(F)cc1 [Example 10, 6-(2-Chlorophenyl)-1-(4-fluorophenyl)-5-hydroxy-1,7-dihydro-4H-pyrazolo[3,4-b]pyridin-4-one] | 100 | 100 | < 0.05
Cc1nn(C)c2[nH]c(-c3ccc(Cl)cc3Cl)c(O)c(=O)c12 [Example 11, 6-(2,4-Dichlorophenyl)-5-hydroxy-1,3-dimethyl-1,7-dihydro-4H-pyrazolo[3,4-b]pyridin-4-one] | 76.6 | 76.5 | 0.1 to 0.15
Cc1nn(C)c2[nH]c(-c3ccc(F)cc3Cl)c(O)c(=O)c12 [Example 12, 6-(2-Chloro-4-fluorophenyl)-5-hydroxy-1,3-dimethyl-1,7-dihydro-4H-pyrazolo[3,4-b]pyridin-4-one] | 95 | 86 | 0.05 to 0.1
Cc1nn(C)c2[nH]c(-c3c(F)cccc3F)c(O)c(=O)c12 [Example 13, 6-(2,6-Difluorophenyl)-5-hydroxy-1,3-dimethyl-1,7-dihydro-4H-pyrazolo[3,4-b]pyridin-4-one] | 99.6 | 98.7 | < 0.05
Cc1nn(C)c2[nH]c(-c3ccc(F)cc3F)c(O)c(=O)c12 [Example 14, 6-(2,4-Difluorophenyl)-5-hydroxy-1,3-dimethyl-1,7-dihydro-4H-pyrazolo[3,4-b]pyridin-4-one] | 100 | 82.5 | 0.05 to 0.1
Cc1ccc(-c2[nH]c3c(c(C)nn3C)c(=O)c2O)cc1C [Example 15, 6-(3,4-Dimethylphenyl)-5-hydroxy-1,3-dimethyl-1,7-dihydro-4H-pyrazolo[3,4-b]pyridin-4-one] | 50.1 |  | 
Cc1nn(C)c2[nH]c(-c3ccc(OC(F)(F)F)c(F)c3)c(O)c(=O)c12 [Example 16, 6-[3-Fluoro-4-(trifluoromethoxy)phenyl]-5-hydroxy-1,3-dimethyl-1,7-dihydro-4H-pyrazolo[3,4-b]pyridin-4-one] | 99.7 |  | > 0.15
Cc1nn(C)c2[nH]c(-c3ccc(F)c(F)c3)c(O)c(=O)c12 [Example 17, 6-(3,4-Difluorophenyl)-5-hydroxy-1,3-dimethyl-1,7-dihydro-4H-pyrazolo[3,4-b]pyridin-4-one] | 63.9 |  | 
COc1ccc(-c2[nH]c3c(c(C)nn3C)c(=O)c2O)c(Cl)c1 [Example 18, 6-(2-Chloro-4-methoxyphenyl)-5-hydroxy-1,3-dimethyl-1,7-dihydro-4H-pyrazolo[3,4-b]pyridin-4-one] | 78.6 | 78.4 | 0.1 to 0.15
COc1ccc(-c2[nH]c3c(c(C)nn3C)c(=O)c2O)c(F)c1 [Example 19, 6-(2-Fluoro-4-methoxyphenyl)-5-hydroxy-1,3-dimethyl-1,7-dihydro-4H-pyrazolo[3,4-b]pyridin-4-one] | 95.3 | 75.2 | 0.05 to 0.1
Cc1nn(C)c2[nH]c(-c3cc(Cl)ccc3Cl)c(O)c(=O)c12 [Example 20, 6-(2,5-Dichlorophenyl)-5-hydroxy-1,3-dimethyl-1,7-dihydro-4H-pyrazolo[3,4-b]pyridin-4-one] | 95.9 | 96.1 | < 0.05
Cc1nn(C)c2[nH]c(-c3ccc(C(F)(F)F)cc3F)c(O)c(=O)c12 [Example 21, 6-[2-Fluoro-4-(trifluoromethyl)phenyl]-5-hydroxy-1,3-dimethyl-1,7-dihydro-4H-pyrazolo[3,4-b]pyridin-4-one] | 100 | 100 | > 0.15
Cc1nn(C)c2[nH]c(-c3ccc(C(F)(F)F)c(F)c3)c(O)c(=O)c12 [Example 22, 6-[3-Fluoro-4-(trifluoromethyl)phenyl]-5-hydroxy-1,3-dimethyl-1,7-dihydro-4H-pyrazolo[3,4-b]pyridin-4-one] | 100 | 80.9 | > 0.15
COc1ccc(Cl)c(-c2[nH]c3c(c(C)nn3C)c(=O)c2O)c1 [Example 23, 6-(2-Chloro-5-methoxyphenyl)-5-hydroxy-1,3-dimethyl-1,7-dihydro-4H-pyrazolo[3,4-b]pyridin-4-one] | 100 | 99.3 | 0.05 to 0.1
Cc1nn(C)c2[nH]c(-c3ccc(Cl)c(C(F)(F)F)c3)c(O)c(=O)c12 [Example 24, 6-[3-Chloro-3-(trifluoromethyl)phenyl]-5-hydroxy-1,3-dimethyl-1,7-dihydro-4H-pyrazolo[3,4-b]pyridin-4-one] | 88.9 |  | > 0.15

Source: patent US20200247800A1, “SUBSTITUTED BICYCLIC HETEROCYCLIC COMPOUNDS AS NADPH OXIDASE INHIBITORS” (Glenmark Pharmaceuticals S.A., priority 2017, published 2020)
